Measured values: patent US9040521B2, “Methods and compositions for modulating tau levels” (THE J. DAVID GLADSTONE INSTITUTES, priority 2009, dated 2015)

What was measured:
[1] = system: tau transcripts; assay: real-time RT-PCR of tau transcripts in primary neurons; type: cell-based, rat; settings: treatment for 8 h
Protocol: (§1) Primary cultures were established from cortices of Sprague-Dawley rat pups (Charles River Laboratories) or SIRT1^F/F mice on postnatal day 0 or 1. Purified cells were plated at 160,000 cells/ml in Neurobasal medium supplemented with B27 (Invitrogen) on poly-ornithine coated plates. All treatments were performed at 7-13 DIV in Neurobasal medium supplemented with N2 (Invitrogen) unless noted otherwise.

[2] = system: AT8-positive p-tau in primary neurons expressing hTauP301L; assay: p-tau in primary neurons expressing hTauP301L; type: cell-based; settings: 20 μM, DIV=12
Protocol: as §1
Lentivirus was generated, purified, and used for infection as described. Chen et al. (2005) supra. Recombinant lentivirus was produced by co-transfection of the shuttle vector (FUGW), two helper plasmids, delta8.9 packaging vector, and VSV-G envelope vector into 293T cells and purified by ultracentrifugation. Viral titers were measured by p24 enzyme-linked immunosorbent assays at the Gladstone-UCSF Laboratory of Clinical Virology.
Cells or human or mouse brain tissues were lysed in RIPA buffer containing protease inhibitor cocktail (Sigma), 1 mM phenylmethyl sulfonyl fluoride (PMSF) (Sigma), phosphatase inhibitor cocktail (Roche), and HDAC inhibitors, including 5 mM nicotinamide (Sigma) and 1 μM trichostatin A (Sigma). […] Supernatants were collected and analyzed by western blot. Bands in immunoblots were visualized by enhanced chemiluminescence (Pierce) and quantified by densitometry and Quantity One 4.0 software (Bio-Rad, Hercules, Calif.).

[3] = system: six other acetyltransferases (serotonin N-acetyltransferase, pCAF, GCN5, Rtt109, Sas, MOZ); settings: C646 at 10 μM, cell-free; cited from earlier work
[4] = system: tau acetylation in primary neurons; assay: western blot of ac-tau, t-tau and p-tau in primary cortical neurons; type: cell-based, rat
Protocol: as §1
(§2) Cells or human or mouse brain tissues were lysed in RIPA buffer containing protease inhibitor cocktail (Sigma), 1 mM phenylmethyl sulfonyl fluoride (PMSF) (Sigma), phosphatase inhibitor cocktail (Roche), and HDAC inhibitors, including 5 mM nicotinamide (Sigma) and 1 μM trichostatin A (Sigma). After sonication, lysates from human or mouse brain tissues were centrifuged at 170,000 g at 4° C. for 15 min and at 18,000 g at 4° C. for 10 min. Supernatants were collected and analyzed by western blot. Bands in immunoblots were visualized by enhanced chemiluminescence (Pierce) and quantified by densitometry and Quantity One 4.0 software (Bio-Rad, Hercules, Calif.).

[5] = system: turnover of endogenous tau in primary neurons; assay: tau turnover in primary neurons treated with cycloheximide; type: cell-based, rat
Protocol: as §1, §2
It was then directly examined whether enhancing acetylation of tau slows the turnover of endogenous tau. Primary neurons were treated with EX527 to enhance tau acetylation and with cycloheximide (CHX) to inhibit translation of new proteins. […] Consistent with this notion, ac-tau appears to be degraded slower than that of t-tau.

[6] = system: tau ubiquitination in HEK293T cells; assay: in vivo ubiquitination assay in HEK293T cells; type: cell-based, human
Protocol: Procedures were modified from a published study. Oh et al. (2009) Nat Cell Biol 11:295. HEK293T cells were transfected with expression vectors encoding FLAG-tagged human tau and HA-ubiquitin with or without Myc-SIRT1 (wildtype or H363Y mutant). After 2 h of incubation, cells were treated with EX527, resveratrol, or dimethylsulfoxide (DMSO) in Dulbecco's modified Eagle's medium and incubated for 20 h. MG-132 (20 μM) was added and incubated for 4 h. Cells were lysed in ubiquitination buffer (20 mM Tris-HCl, pH 7.5, 0.1 mM EDTA, 0.2% Triton X-100, 150 mM NaCl, and protease inhibitor cocktail). Supernatant proteins were immunoprecipitated with FLAG M2 agarose beads (Sigma) for 3 h at 4° C. Reactions were washed at least three times with ubiquitination buffer and analyzed by SDS-PAGE and western blot with anti-HA antibody (Cell Signaling Technology).

[7] = EX527 50 μM, rat primary neurons DIV=10

SMILES: CC1=NN(c2ccc(C(=O)O)cc2)C(=O)/C1=C\c1ccc(-c2cc(C)c(C)cc2[N+](=O)[O-])o1 [Compound C646]
- tau transcripts [1]: did not suppress
- AT8-positive p-tau [2]: diminished
- inhibition of the six other acetyltransferases [3]: < 10%
- t-tau levels ([4]; 20 μM, 2 h, primary cortical neurons DIV=9): without affecting
- levels of t-tau ([4]; 20 μM, 8 h, primary rat cortical neurons): remained unchanged
- levels of t-tau ([4]; 20 μM, 20 h, primary cortical neurons): lowered
- tau phosphorylated at serine 202 (AT8-positive p-tau) ([4]; 20 μM, within 2 h, primary cortical neurons): abolished
- ac-tau ([4]; 20 μM, within 2 h, primary cortical neurons DIV=9): eliminated
- levels of ac-tau ([4]; 20 μM, within 8 h, primary rat cortical neurons): drastically reduced

SMILES: NC(=O)C1CCCc2c1[nH]c1ccc(Cl)cc21 (stereo not shown) [EX527]
- turnover of ac-tau ([5]; 10 μM, CHX, primary neurons): blocked the turnover
- accumulation of ac-tau ([5]; 50 μM, CHX, primary neurons): more pronounced accumulation
- half-life of t-tau (tau turnover) ([5]; 10-50 μM, CHX 0-8 h, rat primary neurons DIV=8): increased the half-life of t-tau in a dose-dependent manner
- degradation of AT8-positive p-tau ([5]; 10-50 μM, CHX, primary neurons): blocked the degradation
- AT8-positive p-tau [4, 7]: markedly increased
- ac-tau [4, 7]: markedly increased
- levels of ac-tau relative to t-tau [4, 7]: significantly increased
- levels of p-tau relative to t-tau [4, 7]: significantly increased
- t-tau [4, 7]: markedly increased
- ac-tau levels ([6]; 1-50 μM, HEK293T cells): elevated
- polyubiquitination of tau ([6]; 1-50 μM, HEK293T cells, with MG132): prevented polyubiquitination of tau in a dose-dependent manner

SMILES: Oc1ccc(C=Cc2cc(O)cc(O)c2)cc1 [resveratrol]
- tau ubiquitination ([6]; HEK293T cells transfected with SIRT1 H363Y mutant): not those with H363Y mutant
- tau ubiquitination ([6]; HEK293T cells transfected with wildtype SIRT1): significantly increased
